The values that follow are results of earlier work, collected in article PMC7961996, “Small Immunomodulatory Molecules as Potential Therapeutics in Experimental Murine Models of Acute Lung Injury (ALI)/Acute Respiratory Distress Syndrome (ARDS)” (International Journal of Molecular Sciences, 2021).

One data set relates to endotoxemia. The arrangement: method as in PMID 22654663. As to conditions: in vivo; cited from earlier work.
The test system of data set [1] is murine macrophages and human peripheral blood monocytes-hPBMC. The arrangement: method as in PMID 22654663. As to conditions: in vitro; cited from earlier work.

In the case of chitohexaose, the endotoxemia result with endotoxemia is reported as “reduces endotoxemia”. In data set [1], the “LPS-induced inflammatory mediators such as TNF-α and IL-6” value is “blocks lipopolysaccharide (LPS)-induced inflammatory mediators”.
